Test results published in patent publication US3950527A, “N-[ω-(4'-(3"-indolyl)-piperidino)-alkyl]-benzamides” (Roussel-UCLAF, priority 1974, dated 1976).

Legend:
mouse [1] = assay: Traction Test (neurosedative activity); type: in vivo; settings: ip, 0.5 h, mice, intraperitoneal, 30 minutes after administration, dose at which 50% of the animals do not reestablish themselves in 5 seconds, read-out: DE50, Traction Test
Excerpt: This test consisted of suspending a mouse by the front paws from a horizontal metal wire and in a time of less than 5 seconds, the normal mouse will effect a reestablishment by managing to place at least one hind paw on the wire. […]

mouse [2] = assay: Chimney Test (neurosedative activity); type: in vivo; settings: ip, 0.5 h, mice, intraperitoneal, 30 minutes after administration, read-out: DE50, Chimney Test
Procedure: This test consisted of placing a mouse in the end of a glass tube 30 cm long with a diameter adapted to the size of the mouse. The tube was straightened vertically in a rapid manner with the head of the mouse at the base. The normal uprighting time for the mouse in the tube was less than 30 seconds. The test was conducted 30 minutes after intraperitoneal administration of the test product and the DE50 dose was determined and is reported in Table I.

[3] = Antagonism to toxicity of amphetaminic compounds; type: in vivo; settings: Mus musculus, ip; male mice, intraperitoneal 30 minutes before 15 mg/kg i.p. dexamphetamine sulfate; group mortality at 24 hours; read-out: DE50, Antagonism to toxicity of amphetamines
Procedure: C. Antagonism to toxicity of amphetaminic compounds
This test was determined on groups of 10 male mice in a crystallizer with a 20 cm diameter and a 9 cm height covered with a grill. The animals received an intraperitoneal injection of 15 mg/kg of dexamphetamine sulfate 30 minutes after intraperitoneal administration of the test product. The group mortality was counted 24 hours after the injection of dexamphetamine sulfate and the DE50 dose was determined.

Acute toxicity = settings: mouse, in vivo, ip; mice, intraperitoneal, mortality after 48 hours; read-out: DL50, acute toxicity
Procedure: The acute toxicity was determined by intraperitoneal administration of the test compounds to mice in increasing doses and determination of the mortality after 48 hours to determine the DL50 dose.

[4] = Antagonism to stereotypes provoked by apomorphine; type: in vivo; settings: Rattus norvegicus, ip; male rats, intraperitoneal 30 minutes before 1.5 mg intravenous apomorphine hydrochloride; read-out: DE50, antagonism to stereotypes provoked by apomorphine
Procedure: B. Antagonism to sterotypes provoked by apomorphine
(§1) This test used groups of 5 male rats in a test inspired by Janssen et al. [Arzn. Forsch., Vol. 15 (1965), p. 104-117 and Vol. 17 (1967), p. 841-854] with each rat in an individual grill cage. Each animal received an intravenous injection in the vein of the penis of 1.5 mg of apomorphine hydrochloride 30 minutes after intraperitoneal administration of the test compound. The animals, control and treated, were observed 1,5,10 and 15 minutes after the last injection and the stereotype movements of the buccal sphere were evaluated for their intensity on a scale of 0 to 3 as by Boissier et al. [Therapie., Vol. 25 (1970), p. 939-949]. The height of the test was determined and the DE50 dose was ascertained to be 10 mg/kg.

[5] = Antagonism to vomitting provoked by apomorphine; type: in vivo; settings: Canis lupus familiaris, sc, 0.5 h; dogs, subcutaneous 30 minutes before 0.1 mg/kg s.c. apomorphine hydrochloride; vomitting counted over one half hour; read-out: DE50, antagonism to vomitting provoked by apomorphine
Procedure: C. Antagonism to vomitting provoked by apomorphine
This test was effected on dogs as reported by Chen et al. [J. Pharmac. exp. Therap. Vol. 93 (1950), p. 245-250]. The test product was subcutaneously administered 30 minutes before subcutaneous administration of 0.1 mg/kg of apomorphine hydrochloride. […] The cross tests were repeated after 8 days on lots of 2 dogs and the DE50 dose was determined to be 0.005 mg/kg.

Cataleptic Power = type: in vivo, young rats; settings: for cataleptic activity (in words): rat, in vivo
Procedure: D. Cataleptic Power This test is described by Boissier et al. [Therapie., Vol. 18 (1963), p. 1257-1277] and was effected on young rats by crossing the homolateral paws and noting the intensity of catalepsy. The test product was intraperitoneally administered and the DE50 was formed to be greater than 60 mg/kg.

[6] = Antipsychotic activity, overall conclusion from the tests on the product of Example 2; settings: in vivo
Procedure: This test consisted of using groups of 5 rats which were placed in individual grill cages. The rats received intraperitoneally 8 mg/kg of dexamphetamine sulfate 30 minutes after intraperitoneal administration of the test products and the test used controls and treated animals. The rating scale was that described by Halliwel et al. [Brit. J. Pharmacol., Vol. 23 (1964), p. 330-350] and the DE50 of the product was […].
as §1
This test was effected on dogs as reported by Chen et al. [J. Pharmac. exp. Therap. Vol. 93 (1950), p. 245-250]. […] The cross tests were repeated after 8 days on lots of 2 dogs and the DE50 dose was determined to be 0.005 mg/kg.

[7] = listed as acid succinate of N-[β-(4'-(3"-indolyl)-piperidino)-ethyl]-4-fluoro-benzamide

Compound	ED50 (mouse [1]) [mg/kg]	ED50 (mouse [2]) [mg/kg]	ED50 [3] [mg/kg]	LD50 at 48 h (Acute toxicity) [mg/kg]	ED50 [4] [mg/kg]	ED50 [5] [mg/kg]	ED50 (Cataleptic Power; Rattus norvegicus, ip, young rats, intraperitoneal, crossing the homolateral paws, read-out: DE50, cataleptic power) [mg/kg]	cataleptic activity (in words) (Cataleptic Power)	cataleptic activity (in words) (Cataleptic Power; [7])	antipsychotic activity (in words) [6]	antipsychotic activity (in words) [6, 7]
COc1cc(F)ccc1C(=O)NCCN1CCC(c2c[nH]c3ccccc23)CC1 [Example 4, N-[β-(4'-(3"-indolyl)-piperidino)-ethyl]-p-fluoro-o-methoxy-benzamide]	8.5	4.5	0.35	> 800	–	–	–	–	–	–	–
O=C(NCCCN1CCC(c2c[nH]c3ccccc23)CC1)c1ccc(F)cc1 [Example 3, N-[γ-(4'-(3"-indolyl)-piperidino)-propyl]-p-fluorobenzamide]	20	5	8	60	–	–	–	–	–	–	–
COc1ccc2c(C3CCN(CCNC(=O)c4ccc(F)cc4)CC3)c(C)[nH]c2c1 [Example 5, N-[β-(4'-(2"-methyl-6"-methoxy-3"-indolyl)-piperidino)-ethyl]-p-fluoro-benzamide]	25	17	3	400	–	–	–	–	–	–	–
COc1cc(N)c(Cl)cc1C(=O)NCCN1CCC(c2c[nH]c3ccccc23)CC1 [Example 7, N-[β-(4'-(3"-indolyl)-piperidino)-ethyl]-2-methoxy-4-amino-5-chloro-benzamide]	–	–	–	> 800	–	–	–	–	–	–	–
O=C(NCCN1CCC(c2c[nH]c3ccccc23)CC1)c1ccc(F)cc1 [Example 2, N-[β-(4'-(3"-indolyl)-piperidino)-ethyl]-p-fluoro-benzamide acid succinate]	6.5	2	0.3	125	10	0.005	> 60	practically devoid of cataleptigenic activity	without cataleptic properties	important antipsychotic activity	antipsychotic activity
COc1ccc(S(N)(=O)=O)cc1C(=O)NCCN1CCC(c2c[nH]c3ccccc23)CC1 [Example 8, N-[β-(4'-(3"-indolyl)-piperidino)-ethyl]-2-methoxy-5-sulfamoyl-benzamide]	–	–	–	800	–	–	–	–	–	–	–
O=C(NCCN1CCC(c2c[nH]c3ccccc23)CC1)c1ccccc1 [Example 1, N-[β-(4'-(3"-indolyl)-piperidino)-ethyl]-benzamide]	18	7	3	300	–	–	–	–	–	–	–
